Reference: US4959375A, “Piperidine derivatives useful as 5-HT3 antagonists” (John Wyeth & Brothers Limited, priority 1988, dated 1990)

Target: T1, 5-HT3 receptors (Oryctolagus cuniculus, UniProt A0A5F9C9J3)
T1 construct: 5-HT3 receptors present on sympathetic nerve terminals in the heart; from tissue; host or cells: isolated right atrium of the rabbit heart
T1 sequence (A0A5F9C9J3 1-494): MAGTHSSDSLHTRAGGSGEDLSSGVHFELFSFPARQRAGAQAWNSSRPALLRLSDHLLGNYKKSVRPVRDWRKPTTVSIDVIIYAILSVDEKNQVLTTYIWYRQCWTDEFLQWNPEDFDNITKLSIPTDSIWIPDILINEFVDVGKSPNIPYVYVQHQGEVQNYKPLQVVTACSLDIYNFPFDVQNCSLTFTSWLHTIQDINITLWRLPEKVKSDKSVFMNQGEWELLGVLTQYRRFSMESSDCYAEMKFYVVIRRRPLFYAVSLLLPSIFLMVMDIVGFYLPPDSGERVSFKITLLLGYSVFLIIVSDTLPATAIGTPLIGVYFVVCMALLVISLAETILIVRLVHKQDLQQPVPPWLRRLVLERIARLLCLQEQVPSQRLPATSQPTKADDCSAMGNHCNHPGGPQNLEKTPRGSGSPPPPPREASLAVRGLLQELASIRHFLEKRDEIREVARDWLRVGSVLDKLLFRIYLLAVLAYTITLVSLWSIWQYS
Test: 5-HT3 antagonistic activity in the isolated right atrium of the rabbit heart
Conditions: chronotropic response to 10^-5 M 5-HT, read-out: -log IC50 (IC50 is the concentration of antagonist which reduces the chronotropic response to 10^-5 M 5-HT by 50%) (converted)
Procedure: The compounds of the invention are tested for 5-HT3 antagonistic activity in the isolated right atrium of the rabbit heart based upon the method of Fozard J. R., Naunyn Schmiedeberg's Arch. Pharmacol., 1984, 326, 36-44. This procedure relies upon the ability of 5-HT to stimulate 5-HT3 receptors present on sympathetic nerve terminals in the heart, causing release of noradrenaline which evokes an increase in the spontaneous rate of beating. The antagonist potency is expressed as -log IC50 (where IC50 is the concentration of antagonist which reduces the chronotropic response to 10^--5 M 5-HT by 50%).

Structure (SMILES) | IC50 [nM]
CN(C)C1CCCN(C(=O)c2c[nH]c3ccccc23)C1 (centres unmarked) [Example 1, 3-Dimethylamino-1-[[(1H)-indol 3 yl]carbonyl]piperidine] | 20
CN(C)C1CCCN(C(=O)c2n[nH]c3ccccc23)C1 (centres unmarked) [Example 4, 3-Dimethylamino-1-[[(1H)-indazol 3 yl]carbonyl]piperidine] | 7.94
